SMILES	melting point
CCOC(Cc1ccc(OCCc2nc(-c3ccccc3)sc2C)c2ccsc12)C(=O)O (racemic) [Example 1, [rac]-2-Ethoxy-3-{4-[2-(5-methyl-2-phenyl-thiazol-4-yl)-ethoxy]-benzo[b]thiophen-7-yl}-propionic acid]	146 to 148 °C
CCOC(Cc1ccc(OCCc2nc(-c3ccccc3)sc2C)c2ccccc12)C(=O)O (racemic) [Example 51, [rac]-2-Ethoxy-3-{4-[2-(5-methyl-2-phenyl-thiazol-4-yl)-ethoxy]-naphthalen-1-yl}-propionic acid]	140 to 143 °C
CCOC(Cc1ccc(OCCc2nc(-c3ccc(C)cc3)sc2C)c2ccsc12)C(=O)O (racemic) [Example 72, [rac]-2-Ethoxy-3-{4-[2-(5-methyl-2-p-tolyl-thiazol-4-yl)-ethoxy]-benzo[b]thiophen-7-yl}-propionic acid]	126 to 127 °C
CCOC(Cc1ccc(OCCc2nc(-c3ccc(C(C)(C)C)cc3)sc2C)c2ccccc12)C(=O)O (racemic) [Example 73, [rac]-3-(4-{2-[2-(4-tert-Butyl-phenyl)-5-methyl-thiazol-4-yl]-ethoxy}-naphthalen-1-yl)-2-ethoxy-propionic acid]	90 to 93 °C
CCOC(Cc1ccc(OCCc2nc(-c3ccc(C(C)(C)C)cc3)sc2C)c2ccsc12)C(=O)O (racemic) [Example 74, [rac]-3-(4-{2-[2-(4-tert-Butyl-phenyl)-5-methyl-thiazol-4-yl]-ethoxy}-benzo[b]thiophen-7-yl)-2-ethoxy-propionic acid]	152 to 154 °C
CCOC(Cc1ccc(OCCc2nc(-c3ccc(C(C)C)cc3)sc2C)c2ccsc12)C(=O)O (racemic) [Example 75, [rac]-2-Ethoxy-3-(4-{2-[2-(4-isopropyl-phenyl)-5-methyl-thiazol-4-yl]-ethoxy}-benzo[b]thiophen-7-yl)-propionic acid]	120 to 122 °C
CCOC(Cc1ccc(OCCc2nc(-c3ccc(C(C)C)cc3)sc2C)c2ccccc12)C(=O)O (racemic) [Example 77, [rac]-2-Ethoxy-3-(4-{2-[2-(4-isopropyl-phenyl)-5-methyl-thiazol-4-yl]-ethoxy}-naphthalen-1-yl)-propionic acid]	111 to 113 °C
CCOC(Cc1ccc(OCCc2nc(-c3ccc(C)cc3)sc2C)c2ccccc12)C(=O)O (racemic) [Example 78, [rac]-2-Ethoxy-3-{4-[2-(5-methyl-2-p-tolyl-thiazol-4-yl)-ethoxy]-naphthalen-1-yl}-propionic acid]	140 to 141 °C
Cc1sc(-c2ccccc2)nc1CCOc1ccc(CC(OC(C)C)C(=O)O)c2sccc12 (racemic) [Example 79, [rac]-2-Isopropoxy-3-{4-[2-(5-methyl-2-phenyl-thiazol-4-yl)-ethoxy]-benzo[b]thiophen-7-yl}-propionic acid]	73 °C
CCCOC(Cc1ccc(OCCc2nc(-c3ccccc3)sc2C)c2ccccc12)C(=O)O (racemic) [Example 80, [rac]-3-{4-[2-(5-Methyl-2-phenyl-thiazol-4-yl)-ethoxy]-naphthalen-1-yl}-2-propoxy-propionic acid]	95 to 99 °C
COC(Cc1ccc(OCCc2nc(-c3ccc(C)cc3)sc2C)c2ccccc12)C(=O)O (racemic) [Example 81, [rac]-2-Methoxy-3-{4-[2-(5-methyl-2-p-tolyl-thiazol-4-yl)-ethoxy]-naphthalen-1-yl}-propionic acid]	155 to 156 °C
CCCOC(Cc1ccc(OCCc2nc(-c3ccc(C)cc3)sc2C)c2ccccc12)C(=O)O (racemic) [Example 82, [rac]-3-{4-[2-(5-Methyl-2-p-tolyl-thiazol-4-yl)-ethoxy]-naphthalen-1-yl}-2-propoxy-propionic acid]	123 to 124 °C
CCOC(Cc1ccc(OCCc2nc(-c3cc(OC)cc(OC)c3)sc2C)c2ccsc12)C(=O)O (racemic) [Example 83, [rac]-3-(4-{2-[2-(3,5-Dimethoxy-phenyl)-5-methyl-thiazol-4-yl]-ethoxy}-benzo[b]thiophen-7-yl)-2-ethoxy-propionic acid]	148 to 150 °C

Results, then the compound that gave them:

melting point	SMILES
156 to 157 °C	COc1cc(OC)cc(-c2nc(CCOc3ccc(CC(OC)C(=O)O)c4sccc34)c(C)s2)c1 (racemic) [Example 84, [rac]-3-(4-{2-[2-(3,5-Dimethoxy-phenyl)-5-methyl-thiazol-4-yl]-ethoxy}-benzo[b]thiophen-7-yl)-2-methoxy-propionic acid]
150 to 152 °C	COc1cc(OC)cc(-c2nc(CCOc3ccc(CC(OC(C)C)C(=O)O)c4sccc34)c(C)s2)c1 (racemic) [Example 85, [rac]-3-(4-{2-[2-(3,5-Dimethoxy-phenyl)-5-methyl-thiazol-4-yl]-ethoxy}-benzo[b]thiophen-7-yl)-2-isopropoxy-propionic acid]
75 to 85 °C	Cc1sc(-c2ccc(C(C)(C)C)cc2)nc1CCOc1ccc(CC(OC(C)C)C(=O)O)c2ccccc12 (racemic) [Example 86, [rac]-3-(4-{2-[2-(4-tert-Butyl-phenyl)-5-methyl-thiazol-4-yl]-ethoxy}-naphthalen-1-yl)-2-isopropoxy-propionic acid]
76 °C	CCCOC(Cc1ccc(OCCc2nc(-c3ccc(C(C)(C)C)cc3)sc2C)c2ccsc12)C(=O)O (racemic) [Example 87, [rac]-3-(4-{2-[2-(4-tert-Butyl-phenyl)-5-methyl-thiazol-4-yl]-ethoxy}-benzo[b]thiophen-7-yl)-2-propoxy-propionic acid]
133 to 135 °C	CCOC(Cc1ccc(OCCc2nc(-c3cc(OC)cc(OC)c3)sc2C)c2ccccc12)C(=O)O (racemic) [Example 88, [rac]-3-(4-{2-[2-(3,5-Dimethoxy-phenyl)-5-methyl-thiazol-4-yl]-ethoxy}-naphthalen-1-yl)-2-ethoxy-propionic acid]
190 to 192 °C	COC(Cc1ccc(OCc2sc(-c3ccc(C(F)(F)F)cc3)nc2C)c2ccccc12)C(=O)O (racemic) [Example 136, [rac]-2-Methoxy-3-{4-[4-methyl-2-(4-trifluoromethyl-phenyl)-thiazol-5-ylmethoxy]-naphthalen-1-yl}-propionic acid]
186 to 188 °C	CCOC(Cc1ccc(OCc2sc(-c3ccc(C(F)(F)F)cc3)nc2C)c2ccccc12)C(=O)O (racemic) [Example 137, [rac]-2-Ethoxy-3-{4-[4-methyl-2-(4-trifluoromethyl-phenyl)-thiazol-5-ylmethoxy]-naphthalen-1-yl}-propionic acid]
140 to 142 °C (dec.)	COC(Cc1ccc(OCc2sc(-c3ccc(C(F)(F)F)cc3)nc2C)c2ccsc12)C(=O)O (racemic) [Example 138, [rac]-2-Methoxy-3-{4-[4-methyl-2-(4-trifluoromethyl-phenyl)-thiazol-5-ylmethoxy]-benzo[b]thiophen-7-yl}-propionic acid]
178 to 179 °C	CCOC(Cc1ccc(OCc2sc(-c3ccc(C(F)(F)F)cc3)nc2C)c2ccsc12)C(=O)O (racemic) [Example 139, [rac]-2-Ethoxy-3-{4-[4-methyl-2-(4-trifluoromethyl-phenyl)-thiazol-5-ylmethoxy]-benzo[b]thiophen-7-yl}-propionic acid]
